# Data published in ChEMBL document CHEMBL4321794, “Discovery and Optimization of 2-Arylquinazolin-4-ones into a Potent and Selective Tankyrase Inhibitor Modulating Wnt Pathway Activity” (J Med Chem, 2019).
# Active and inactive are the calls of the source. No cut-off for these calls is given here.
# What was measured:
# [1] = Intrinsic clearance in human hepatocytes assessed per million cells; format: ADME, cell-based, Hepatocyte; settings: read-out: CLH
# [2] = molecular target: Poly [ADP-ribose] polymerase 2 (Homo sapiens, UniProt Q9UGN5); assay: Inhibition of N-terminal GST-tagged recombinant human PARP2 (2 to 583 residues) expressed in Baculovirus infected Sf9 cells using biotinylated substrate after 1 hr by chemiluminescence method
# [3] = Intrinsic clearance in mouse hepatocytes assessed per million cells; format: ADME, cell-based, Hepatocyte; settings: read-out: CLH
# [4] = molecular target: T1, Protein mono-ADP-ribosyltransferase PARP11 (Homo sapiens, UniProt Q9NR21); assay: Inhibition of human N-terminal GST-tagged PARP11 (8 to 338 residues) expressed in baculovirus infected Sf9 insect cells using biotinylated substrate by chemiluminescence method
# T1 sequence (Q9NR21 whole entry): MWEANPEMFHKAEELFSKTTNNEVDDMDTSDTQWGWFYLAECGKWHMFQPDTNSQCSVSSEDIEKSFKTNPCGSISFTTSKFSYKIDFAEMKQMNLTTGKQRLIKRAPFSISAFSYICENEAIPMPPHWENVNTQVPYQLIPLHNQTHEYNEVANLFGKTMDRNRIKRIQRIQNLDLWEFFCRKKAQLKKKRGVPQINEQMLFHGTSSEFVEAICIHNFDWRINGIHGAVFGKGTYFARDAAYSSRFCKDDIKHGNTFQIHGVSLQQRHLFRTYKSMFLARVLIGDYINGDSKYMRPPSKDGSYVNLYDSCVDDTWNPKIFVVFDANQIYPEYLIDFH
# [5] = molecular target: T2, Protein mono-ADP-ribosyltransferase PARP15 (Homo sapiens, UniProt Q460N3); assay: Inhibition of human N-terminal GST-tagged PARP15 (221 to 444 residues) expressed in Escherichia coli using biotinylated substrate by chemiluminescence method
# T2 sequence (Q460N3 whole entry): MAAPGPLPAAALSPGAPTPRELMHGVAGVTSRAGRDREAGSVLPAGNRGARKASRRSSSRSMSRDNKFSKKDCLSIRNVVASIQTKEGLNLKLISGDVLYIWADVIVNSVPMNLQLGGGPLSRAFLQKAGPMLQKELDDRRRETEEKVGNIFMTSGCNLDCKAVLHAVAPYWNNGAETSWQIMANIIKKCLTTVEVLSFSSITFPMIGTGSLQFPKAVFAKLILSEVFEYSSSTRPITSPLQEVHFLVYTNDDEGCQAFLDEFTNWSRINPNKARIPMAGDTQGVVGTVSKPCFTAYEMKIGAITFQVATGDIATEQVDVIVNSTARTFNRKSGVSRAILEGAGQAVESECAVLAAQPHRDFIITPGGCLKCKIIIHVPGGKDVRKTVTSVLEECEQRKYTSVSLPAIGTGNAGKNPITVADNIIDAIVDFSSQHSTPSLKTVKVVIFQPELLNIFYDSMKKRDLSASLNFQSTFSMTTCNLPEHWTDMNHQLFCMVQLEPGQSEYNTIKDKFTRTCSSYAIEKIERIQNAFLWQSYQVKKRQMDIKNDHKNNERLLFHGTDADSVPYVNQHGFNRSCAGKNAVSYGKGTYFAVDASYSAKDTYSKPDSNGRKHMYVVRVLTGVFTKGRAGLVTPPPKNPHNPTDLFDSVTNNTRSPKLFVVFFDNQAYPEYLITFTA
# [6] = Thermodynamic solubility in phosphate buffer at pH 7.4 at 2 mg incubated under shaking condition for 6 hrs followed by rechecking and readjusting pH to 7.4 and further incubated for 18 hrs by HPLC/UV detection method; format: physicochemical; settings: read-out: Therm_solubility
# [7] = molecular target: Protein mono-ADP-ribosyltransferase PARP6 (Homo sapiens, UniProt Q2NL67); assay: Inhibition of N-terminal GST-tagged recombinant human full length PARP6 expressed in Baculovirus infected Sf9 cells using biotinylated substrate after 1 hr by chemiluminescence method
# [8] = Intrinsic clearance in human liver microsomes assessed per mg protein in presence of NADPH by UPLC analysis; format: ADME, Microsome; settings: read-out: CLH
# Mus musculus = assay: Ex vivo inhibition of tankyrase 1/2 in human DLD1 cells xenografted in immunodeficient athymic nude mouse assessed as increase in axin-2 level in tumor lysates at 10 mg/kg, po administered via gavage measured after 12 hrs by luminex based bead assay; format: functional, organism-based; settings: Neoplasm, Lysate
# [9] = molecular target: T3, Protein mono-ADP-ribosyltransferase PARP12 (Homo sapiens, UniProt Q9H0J9); assay: Inhibition of human N-terminal His/GST-tagged PARP12 (500 to 701 residues) expressed in baculovirus infected Sf9 insect cells using biotinylated substrate by chemiluminescence method
# T3 sequence (Q9H0J9 whole entry): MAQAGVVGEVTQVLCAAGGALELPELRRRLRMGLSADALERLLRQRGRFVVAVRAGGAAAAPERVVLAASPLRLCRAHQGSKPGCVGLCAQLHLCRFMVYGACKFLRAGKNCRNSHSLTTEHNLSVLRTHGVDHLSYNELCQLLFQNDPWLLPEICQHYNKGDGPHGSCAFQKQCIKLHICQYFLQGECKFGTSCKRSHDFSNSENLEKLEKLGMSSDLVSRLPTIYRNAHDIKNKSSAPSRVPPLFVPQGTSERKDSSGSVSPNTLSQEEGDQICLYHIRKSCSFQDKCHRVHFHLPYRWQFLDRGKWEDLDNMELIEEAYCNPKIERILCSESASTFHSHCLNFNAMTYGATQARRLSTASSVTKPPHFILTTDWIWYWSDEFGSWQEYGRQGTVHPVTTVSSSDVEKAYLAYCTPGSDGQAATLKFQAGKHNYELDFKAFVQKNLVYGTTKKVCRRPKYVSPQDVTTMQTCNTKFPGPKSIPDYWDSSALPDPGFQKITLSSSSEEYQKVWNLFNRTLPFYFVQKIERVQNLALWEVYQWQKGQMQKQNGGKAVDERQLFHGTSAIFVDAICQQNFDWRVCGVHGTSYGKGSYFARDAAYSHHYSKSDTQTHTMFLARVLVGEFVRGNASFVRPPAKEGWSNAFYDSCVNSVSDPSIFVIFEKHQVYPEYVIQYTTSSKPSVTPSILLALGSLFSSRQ
# [10] = molecular target: Poly [ADP-ribose] polymerase 1 (Homo sapiens, UniProt P09874); assay: Inhibition of recombinant human full-length Myc/His-tagged Parp-1 expressed in baculovirus infected Sf21 insect cells assessed as reduction in auto-PARsylation using activated DNA as substrate incubated for 150 mins in presence of NAD and bio-NAD as co-substrate by TR-FRET assay
# Chain of Poly [ADP-ribose] polymerase 1 (P09874 whole entry): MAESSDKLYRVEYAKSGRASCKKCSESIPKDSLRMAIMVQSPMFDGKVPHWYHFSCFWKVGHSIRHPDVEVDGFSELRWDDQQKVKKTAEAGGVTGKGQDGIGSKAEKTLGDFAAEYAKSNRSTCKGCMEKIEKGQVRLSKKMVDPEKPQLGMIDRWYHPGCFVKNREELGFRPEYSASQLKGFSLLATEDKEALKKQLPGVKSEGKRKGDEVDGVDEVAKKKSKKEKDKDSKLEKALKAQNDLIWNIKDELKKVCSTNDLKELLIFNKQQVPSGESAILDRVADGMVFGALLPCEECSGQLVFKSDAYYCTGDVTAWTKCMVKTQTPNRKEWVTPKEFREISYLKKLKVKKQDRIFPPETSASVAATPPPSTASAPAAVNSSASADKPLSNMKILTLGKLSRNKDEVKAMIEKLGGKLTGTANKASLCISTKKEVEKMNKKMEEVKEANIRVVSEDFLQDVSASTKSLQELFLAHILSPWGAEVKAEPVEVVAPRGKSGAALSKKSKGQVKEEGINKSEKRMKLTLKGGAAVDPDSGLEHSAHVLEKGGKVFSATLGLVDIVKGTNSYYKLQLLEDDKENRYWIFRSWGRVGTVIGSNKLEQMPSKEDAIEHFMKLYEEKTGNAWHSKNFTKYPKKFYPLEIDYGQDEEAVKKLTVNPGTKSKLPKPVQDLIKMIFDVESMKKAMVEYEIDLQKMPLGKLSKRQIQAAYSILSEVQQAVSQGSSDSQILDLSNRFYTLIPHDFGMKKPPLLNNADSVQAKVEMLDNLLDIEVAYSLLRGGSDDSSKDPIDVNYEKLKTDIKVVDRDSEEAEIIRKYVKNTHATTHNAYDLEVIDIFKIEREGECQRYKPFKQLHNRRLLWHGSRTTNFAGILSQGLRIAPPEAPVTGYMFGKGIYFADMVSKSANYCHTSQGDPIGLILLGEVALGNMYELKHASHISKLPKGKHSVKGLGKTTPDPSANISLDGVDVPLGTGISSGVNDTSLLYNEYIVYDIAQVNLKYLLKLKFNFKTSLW
# Chain of Poly [ADP-ribose] polymerase 2 (Q9UGN5 whole entry, the tested form may be a part): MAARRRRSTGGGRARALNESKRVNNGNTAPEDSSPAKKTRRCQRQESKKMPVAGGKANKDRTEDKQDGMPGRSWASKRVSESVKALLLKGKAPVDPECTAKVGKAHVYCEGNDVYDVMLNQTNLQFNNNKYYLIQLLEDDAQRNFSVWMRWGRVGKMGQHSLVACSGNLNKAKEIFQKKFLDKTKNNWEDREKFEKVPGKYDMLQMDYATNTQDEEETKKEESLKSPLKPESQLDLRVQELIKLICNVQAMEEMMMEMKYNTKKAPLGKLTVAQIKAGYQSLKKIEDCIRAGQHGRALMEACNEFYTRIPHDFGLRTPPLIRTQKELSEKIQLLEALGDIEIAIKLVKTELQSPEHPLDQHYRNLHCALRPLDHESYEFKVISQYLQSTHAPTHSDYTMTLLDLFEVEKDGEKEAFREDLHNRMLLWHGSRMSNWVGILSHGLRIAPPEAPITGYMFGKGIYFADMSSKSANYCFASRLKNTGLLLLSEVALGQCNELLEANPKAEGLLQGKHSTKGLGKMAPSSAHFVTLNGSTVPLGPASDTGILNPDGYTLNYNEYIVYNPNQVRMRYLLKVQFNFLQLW
# Chain of Protein mono-ADP-ribosyltransferase PARP6 (Q2NL67 whole entry): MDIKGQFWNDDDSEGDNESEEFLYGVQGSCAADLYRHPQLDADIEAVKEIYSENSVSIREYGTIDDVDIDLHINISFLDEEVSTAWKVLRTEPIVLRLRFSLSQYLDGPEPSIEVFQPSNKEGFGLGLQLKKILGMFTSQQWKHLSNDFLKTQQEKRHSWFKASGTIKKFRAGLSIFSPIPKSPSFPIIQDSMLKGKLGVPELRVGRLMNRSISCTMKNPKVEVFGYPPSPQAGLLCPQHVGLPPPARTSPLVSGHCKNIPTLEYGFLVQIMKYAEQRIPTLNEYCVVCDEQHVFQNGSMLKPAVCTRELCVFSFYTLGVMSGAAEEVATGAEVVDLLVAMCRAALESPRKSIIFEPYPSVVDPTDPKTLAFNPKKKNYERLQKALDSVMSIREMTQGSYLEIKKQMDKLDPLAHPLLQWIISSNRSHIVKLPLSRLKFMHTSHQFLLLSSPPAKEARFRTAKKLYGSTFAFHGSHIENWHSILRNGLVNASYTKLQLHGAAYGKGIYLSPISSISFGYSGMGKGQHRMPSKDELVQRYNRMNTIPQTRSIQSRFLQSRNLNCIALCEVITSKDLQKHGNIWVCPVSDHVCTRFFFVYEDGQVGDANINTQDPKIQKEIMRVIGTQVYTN
compound,measurement,setting,value
CC(C)(O)c1ccc(-c2nc3c(F)cc(F)cc3c(=O)[nH]2)cc1,hepatocyte CLint,[1],1.25 µL/min/1e6 cells
same,IC50,[2],1 µM
same,hepatocyte CLint,[3],15.2 µL/min/1e6 cells
same,IC50,[4],> 10 µM
same,IC50,[5],> 10 µM
same,solubility thermodynamic at 24 h,[6],31 µg/mL
same,IC50,[7],> 10 µM
same,microsomal CLint,[8],< 10 µL/min/mg
same,inhibition,Mus musculus,Active
same,IC50,[9],> 10 µM
same,IC50,[10],0.782 µM
